Results on two molecules are retold here after patent publication US20110237607A1, “SUBSTITUTED PURINYL-PYRAZOL DERIVATIVES AND THEIR USE AS POTASSIUM CHANNEL MODULATORS” (NEUROSEARCH A/S, priority 2008, published 2011).

Structures are written as SMILES.

This experiment deals with T1, hSK3 channels (Homo sapiens, UniProt Q9UGI6).
T1 construct: expressed in transfected cells; host or cells: HEK293
The experiment can be described thus: Whole-cell patch-clamp recording of SK3 current in HEK293 cells expressing hSK3 channels. Type of experiment: cell-based. As for the experimental part:
The ionic current through small-conductance Ca^2+-activated K^+ channels (SK channels, subtype 3) is recorded using the whole-cell configuration of the patch-clamp technique in a classic patch-clamp set-up using HEK293 tissue culture cells expressing hSK3 channels as described in e.g. WO 2006/100212.
The SC100 value determined is defined as the Stimulating Concentration required for increasing the baseline current by 100%. The below SC100 values are an indication of the SK3 activating properties of the compounds of the invention.
A general note: Patch clamp records ionic current or voltage across a cell membrane.

For the molecule `Cc1ccn(-c2nc(NC3Cc4ccccc4C3)c3ncn(C)c3n2)n1` [Compound 5.2, Indan-2-yl-[9-methyl-2-(3-methyl-pyrazol-1-yl)-9H-purin-6-yl]-amine], the “SC100 (Stimulating Concentration required for increasing the baseline current by 100%)” value was found to be 0.10 µM.
In the case of `Cc1cc(C)n(-c2nc(NC3Cc4ccccc4C3)c3ncn(C)c3n2)n1` [Compound 5.1, [2-(3,5-Dimethyl-pyrazol-1-yl)-9-methyl-9H-purin-6-yl]-indan-2-yl-amine], the “SC100 (Stimulating Concentration required for increasing the baseline current by 100%)” value was 0.04 µM.
